# Results as given in patent US4489094A, “Arylalkylaminobenzoic acids” (American Cyanamid Company, priority 1983, dated 1984).
# Target: T1, fatty acyl CoA: cholesterol acyl transferase (ACAT) (Rattus norvegicus, UniProt O70536)
# T1 construct: Rat adrenals were homogenized; from tissue; host or cells: rat adrenals, 1,000 x g supernatant containing the microsomal fraction
# T1 sequence (O70536 1-545): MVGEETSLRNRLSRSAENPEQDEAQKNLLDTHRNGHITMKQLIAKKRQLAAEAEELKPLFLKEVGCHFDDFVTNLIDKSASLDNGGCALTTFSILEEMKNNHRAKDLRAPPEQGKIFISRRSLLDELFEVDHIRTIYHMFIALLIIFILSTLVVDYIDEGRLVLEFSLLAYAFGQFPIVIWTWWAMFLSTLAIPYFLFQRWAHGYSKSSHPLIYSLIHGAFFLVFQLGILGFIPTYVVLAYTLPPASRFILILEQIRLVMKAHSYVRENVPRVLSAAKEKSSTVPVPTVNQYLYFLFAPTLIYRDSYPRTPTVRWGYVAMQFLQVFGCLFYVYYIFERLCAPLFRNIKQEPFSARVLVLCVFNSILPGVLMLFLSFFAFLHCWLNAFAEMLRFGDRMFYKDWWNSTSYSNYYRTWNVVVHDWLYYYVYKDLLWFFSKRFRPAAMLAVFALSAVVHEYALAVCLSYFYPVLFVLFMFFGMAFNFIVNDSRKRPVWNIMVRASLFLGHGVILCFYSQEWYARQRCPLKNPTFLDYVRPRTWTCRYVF
# Test: Inhibition of enzymatic esterification of cholesterol (ACAT), rat adrenal microsomal supernatant
# Type: biochemical
# Conditions: final concentration of test compound 5.2 μg./ml.; percent inhibition of the ACAT enzyme compared to control values
# Experimental: The compounds of the present invention were tested for their ability to inhibit the enzymatic esterification of cholesterol according to the following procedure:
# Rat adrenals were homogenized in 0.2M monobasic potassium phosphate buffer, pH 7.4, and centrifuged at 1,000 times gravity for 15 minutes at 5° C. The supernatant, containing the microsomal fraction, served as the source of the cholesterol-esterifying enzyme, fatty acyl CoA: cholesterol acyl transferase (ACAT). A mixture comprising 50 parts of adrenal supernatant, 10 parts of albumin (BSA) (50 mg./m.), […], 3 parts of test compound, and 500 parts of buffer was pre-incubated at 37° C. for 10 minutes. After treatment with 20 parts of oleoyl CoA (^14 C-0.4 μCi), the mixture was incubated at 37° C. for 10 minutes. A control mixture, omitting the test compound, was prepared and treated in the same manner. The lipids from the incubation mixture were extracted into an organic solvent and separated by thin-layer chromatography. The cholesterol ester fraction was counted in a scintillation counter. This procedure is a modification of that described by Hashimoto, et al. Life Scie., 12 (Part II), 1-12 (1973).
# The results of this test on representative compounds of this invention appear in Table I. The final concentration of the test compound was 5.2 μg./ml., and effectiveness of the compound is expressed as percent inhibition of the ACAT enzyme compared to control values.
row,Compound,inhibition at 5.2 µg/mL [%]
1,O=C(O)c1ccc(N(CCCc2ccc(Cl)cc2)CCCc2ccc(Cl)cc2)cc1 [4-[Bis[3-(p-chlorophenyl)propyl]amino]benzoic acid],33
2,"O=C(O)c1ccc(NCCC(c2ccc(Cl)cc2)c2ccc(Cl)cc2)cc1 [4-[[3,3-Bis(p-chlorophenyl)propyl]amino]benzoic acid]",21
3,CN(CCCc1ccc(Cl)cc1)c1ccc(C(=O)O)cc1 [4-[[3-(p-Chlorophenyl)propyl]methylamino]benzoic acid],24
4,"CCOC(=O)c1ccc(NC(c2ccc(Cl)cc2)c2ccc(Cl)cc2)cc1 [4-[[Bis(p-chlorophenyl)methyl]amino]benzoic acid, ethyl ester]",55
5,"CCOC(=O)c1ccc(N(CC)CCCc2ccc(Cl)cc2)cc1 [4-[[3-(p-Chlorophenyl)propyl]ethylamino]benzoic acid, ethyl ester]",48
6,CCN(CCCc1ccc(Cl)cc1)c1ccc(C(=O)O)cc1 [4-[[3-(p-Chlorophenyl)propyl]ethylamino]benzoic acid],33
7,"CCOC(=O)c1ccc(NCCC(c2ccc(Cl)cc2)c2ccc(Cl)cc2)cc1 [4-[[3,3-Bis(p-chlorophenyl)propyl]amino]benzoic acid, ethyl ester]",89
8,"O=C(O)c1ccc(NCC(c2ccc(Cl)cc2)c2ccc(Cl)cc2)cc1 [4-[[2,2-Bis(p-chlorophenyl)ethyl]amino]benzoic acid]",19
9,O=C(O)c1ccc(NCc2ccc(Cl)cc2)cc1 [4-[[(p-chlorophenyl)methyl]amino]benzoic acid],6
10,"CCOC(=O)c1ccc(N(C)CCCc2ccc(Cl)cc2)cc1 [4-[[3-(p-Chlorophenyl)propyl]methylamino]benzoic acid, ethyl ester]",53
11,"CCOC(=O)c1ccc(NCC=C(c2ccc(Cl)cc2)c2ccc(Cl)cc2)cc1 [4-[[3,3-Bis(p-chlorophenyl)allyl]amino]benzoic acid, ethyl ester]",81
12,"O=C(O)c1ccc(NCC=C(c2ccc(Cl)cc2)c2ccc(Cl)cc2)cc1 [4-[[3,3-Bis(p-chlorophenyl)allyl]amino]benzoic acid]",46
